Reference: patent US20220244245A1, “A METHOD OF PROFILING THE ENERGETIC METABOLISM OF A POPULATION OF CELLS” (INSERM (Institut National de la Santé et de la Recherche …, priority 2019, published 2022)

Columns and labels:
MEFs = assay: ATP measurement (Cell titer-Glo luminescence) in MEFs; format: cell-based, mouse
Experimental: 20×104 MEFs were seeded in 100 µl of 5% FCS DMEM culture media ON in opaque 96 well plates. After, 100 ul of Cell titer-Glo luminiscence ATP reconstituted buffer and substrate (Promega, Cat. No. G7570) was added to each well and Luminiscence was measured after 10 minutes following manufacturer instructions. A standard curve with ATP was performed using the same kit and following manufacturer instructions.

Flt3L-bmDC = assay: ZENITH: protein synthesis (puromycin incorporation, flow cytometry) in Flt3L-bmDC subsets, WT and PERK KO; format: cell-based, mouse; conditions: short 2-DG treatment; DC subsets from WT PERKflox/flox and CD11c-CRE PERKflox/flox (PERK KO)
Experimental: Mouse splenocytes from WT C57BL/6J (Jackson) or PERK KO C57BL/6J background mice (Zhang et al., 2002) were cultured in DMEM containing 5% of Fetal Calf Serum (FCS) and 50 μM of 2-Mercaptoethanol (Mouse cells culture media, MCCM) at 37° C. 5% of CO2 GM-CSF BM-derived dendritic cells (GM-bmDCs) were differentiated in vitro from the bone marrow of 6-8-week-old male mice, using GM-CSF, produced by J558L cells. Bone marrow progenitors were plated at 0.8×10^6 cells/ml, 5 ml/well in 6-well plates, and cultivated with RPMI (GIBCO), 5% FCS (Sigma-Aldrich), 20 μg/ml gentamycin (Sigma-Aldrich), 50 μM β-mercaptoethanol (VWR), and GM-CSF. The medium was replaced every 2 days; BM-derived DCs were used for experiments at day 6. Similarly, FLT3L BM-derived dendritic cells (FLT3L-bmDCs) were differentiated by adding FLT3L to RPMI, 10% of Fetal Calf Serum (FCS) and 50 μM of 2-Mercaptoethanol (Mouse cells culture media, MCCM) during 6 days at 37° C. 5% of CO2. To obtain splenocytes, eight weeks old wild type C57BL/6J mice were sacrificed by cervical dislocation and splenectomized. Single cells suspentions from the spleens were generated and cultured in MCCM as previously described. […]
Flow cytometry was conducted using BD LSR II and BD LSR Fortessa X-20 machine (BD Biosciences™) and data were analyzed with FlowJo (Tree Star™) and/or Cytobank. […]

`C[C@@H]1C[C@@H]([C@H](O)CC2CC(=O)NC(=O)C2)C(=O)[C@@H](C)C1` [CHX, Cycloheximide] was tested, and the “pool of ATP” value (MEFs; MEFs, added on top of Oligo+2-DG, 5 minutes of treatment, compared to Oligo+2-DG treatment (Co), FIG. 2A) was “significantly higher”.
For `CC[C@H]1/C=C/C=C/C[C@@H](C)[C@H](O)[C@@](C)(O)C(=O)[C@@H](C)[C@H](O)[C@@H](C)C(=O)[C@@H](C)[C@H](O)[C@@H](C)/C=C/C(=O)O[C@@H]2[C@H](C)[C@H](CC1)O[C@]1(CC[C@H](C)[C@H](C[C@@H](C)O)O1)[C@H]2C` [Oligomycin], the “levels of ATP” value (MEFs; MEFs treated 20-30 minutes with the metabolic inhibitor, FIGS. 3A and 3B) was “unchanged”.
For `O=CC[C@@H](O)[C@H](O)[C@H](O)CO` [2-DG, 2-Deoxy-D-Glucose], the “protein synthesis in response to 2-DG” value (Flt3L-bmDC) was “decrease protein synthesis”.
